In ChEMBL document CHEMBL5506069, “A Unique Hybridization Route to Access Hydrazylnaphthalimidols as Novel Structural Scaffolds of Multitargeting Broad-Spectrum Antifungal Candidates” (J Med Chem, 2024):
Values after ≈ are worked out from the molar mass of the structure shown. Active and inactive are the calls of the source. The rule behind the calls is not given here.

Experiments:
Candida tropicalis = test: Antifungal activity against Candida tropicalis assessed as inhibition of fungal growth incubated for 24 hrs by CLSI based microbroth dilution method; assay type: functional
Candida parapsilosis = test: Antifungal activity against Candida parapsilosis ATCC 22019 assessed as inhibition of fungal growth incubated for 24 hrs by CLSI based microbroth dilution method; assay type: functional; settings: Lodderomyces parapsilosis
Candida albicans [1] = test: Antibiofilm activity against Candida albicans assessed as inhibition of biofilm formation at 0.5 to 8 microg/ml measured for 24 hrs by crystal violet staining based; assay type: functional; settings: dose 0.5-8 µg/ml
Candida albicans [2] = test: Antifungal activity against Candida albicans measured after at 8 passages; assay type: functional, organism-based
Candida albicans [3] = test: Antifungal activity against Candida albicans ATCC 90023 assessed as inhibition of fungal growth incubated for 24 hrs by CLSI based microbroth dilution method; assay type: functional
Candida albicans [4] = test: Antifungal activity against Candida albicans assessed as inhibition of fungal growth incubated for 24 hrs by CLSI based microbroth dilution method; assay type: functional
Aspergillus fumigatus [5] = test: Antifungal activity against Aspergillus fumigatus assessed as inhibition of fungal growth incubated for 24 hrs by CLSI based microbroth dilution method; assay type: functional
Cell membrane = test: Induction of cell membrane potential loss in Candida albicans assessed as change in fluorescence intensity at 4 times MIC measured for 30 mins by DiSC3-5 dye based fluorescence method; assay type: subcellular
Candida albicans [6] = test: Potency index, ratio of fluconazole MIC to test compound MIC for antifungal activity against Candida albicans ATCC 90023 assessed as inhibition of fungal growth incubated for 24 hrs by CLSI based microbroth dilution method; assay type: functional
Aspergillus fumigatus [7] = test: Potency index, ratio of fluconazole MIC to test compound MIC for antifungal activity against Aspergillus fumigatus assessed as inhibition of fungal growth incubated for 24 hrs by CLSI based microbroth dilution method; assay type: functional

Row | SMILES | MIC (Candida tropicalis) [µM] | MIC (Candida parapsilosis) [µM] | inhibition (Candida albicans [1]) | Activity (Candida albicans [2]) | MIC (Candida albicans [3]) [µM] | MIC (Candida albicans [4]) [µM] | MIC (Aspergillus fumigatus [5]) [µM] | Activity (Cell membrane) | Ratio (Candida albicans [6]) | Ratio (Aspergillus fumigatus [7])
1 | OC(Cn1cncn1)(Cn1cncn1)c1ccc(F)cc1F [FLUCONAZOLE] | 13 (≈ 3.98 µg/mL) | 26 (≈ 7.96 µg/mL) | inactive | inactive | 33 (≈ 10.1 µg/mL) | 13 (≈ 3.98 µg/mL) | 418 (≈ 128 µg/mL) |  |  | 
2 | O=C1c2cccc3c(N/N=C/c4ccc[n+](Cc5ccc([N+](=O)[O-])cc5)c4)ccc(c23)C(=O)N1CCO | 111 | 14 |  |  | 56 | 56 | 111 | inactive |  | 
3 | C/C(Cn1c([N+](=O)[O-])cnc1C)=N\Nc1ccc2c3c(cccc13)C(=O)N(c1ccc(C(F)(F)F)cc1Cl)C2=O | 477 (≈ 272 µg/mL) | 239 (≈ 136 µg/mL) |  |  | 954 (≈ 545 µg/mL) | 477 (≈ 272 µg/mL) | 477 (≈ 272 µg/mL) |  |  | 
4 | C#CCn1c(CCCC)nc(Cl)c1/C=N/Nc1ccc2c3c(cccc13)C(=O)N(CCO)C2=O | 2 (≈ 0.956 µg/mL) | 67 (≈ 32 µg/mL) |  |  | 17 (≈ 8.13 µg/mL) | 67 (≈ 32 µg/mL) | 8 (≈ 3.82 µg/mL) |  |  | 
5 | NN1C(=O)c2cccc3c(N/N=C/c4ccc([N+](=O)[O-])o4)ccc(c23)C1=O | 5 (≈ 1.83 µg/mL) | 21 (≈ 7.67 µg/mL) |  |  | 5 (≈ 1.83 µg/mL) | 21 (≈ 7.67 µg/mL) | 10 (≈ 3.65 µg/mL) |  |  | 
6 | COc1ccc(N2C(=O)c3cccc4c(N/N=C(\C)Cn5c([N+](=O)[O-])cnc5C)ccc(c34)C2=O)cc1 | 514 (≈ 256 µg/mL) | 257 (≈ 128 µg/mL) |  |  | 1030 (≈ 512 µg/mL) | 514 (≈ 256 µg/mL) | 1030 (≈ 512 µg/mL) |  |  | 
7 | CCCCc1nc(Cl)c(/C=N/Nc2ccc3c4c(cccc24)C(=O)N(CCO)C3=O)n1Cc1cccc(Cl)c1 | 28 (≈ 15.8 µg/mL) | 57 (≈ 32.2 µg/mL) |  |  | 2 (≈ 1.13 µg/mL) | 57 (≈ 32.2 µg/mL) | 114 (≈ 64.3 µg/mL) |  | 16 | 
8 | C=CCN1C(=O)c2cccc3c(N/N=C(\C)Cn4c([N+](=O)[O-])cnc4C)ccc(c23)C1=O | 1190 (≈ 515 µg/mL) | 1190 (≈ 515 µg/mL) |  |  | 1190 (≈ 515 µg/mL) | 1190 (≈ 515 µg/mL) | 595 (≈ 257 µg/mL) |  |  | 
9 | C/C(Cn1c([N+](=O)[O-])cnc1C)=N\Nc1ccc2c3c(cccc13)C(=O)N(CCO)C2=O | 1170 (≈ 512 µg/mL) | 1170 (≈ 512 µg/mL) |  |  | 1170 (≈ 512 µg/mL) | 1170 (≈ 512 µg/mL) | 587 (≈ 256 µg/mL) |  |  | 
10 | O=C1c2cccc3c(N/N=C/c4c[nH]cn4)ccc(c23)C(=O)N1CCO | 46 (≈ 16.1 µg/mL) | 23 (≈ 8.04 µg/mL) |  |  | 92 (≈ 32.1 µg/mL) | 183 (≈ 63.9 µg/mL) | 183 (≈ 63.9 µg/mL) |  |  | 
11 | O=C1c2cccc3c(N/N=C/c4ccncc4)ccc(c23)C(=O)N1CCO | 355 (≈ 128 µg/mL) | 355 (≈ 128 µg/mL) |  |  | 711 (≈ 256 µg/mL) | 355 (≈ 128 µg/mL) | 355 (≈ 128 µg/mL) |  |  | 
12 | CCCCc1nc(Cl)c(/C=N/Nc2ccc3c4c(cccc24)C(=O)N(CCO)C3=O)n1CCN1CCOCC1 | 29 (≈ 16 µg/mL) | 116 (≈ 64.2 µg/mL) |  |  | 4 (≈ 2.21 µg/mL) | 58 (≈ 32.1 µg/mL) | 29 (≈ 16 µg/mL) |  |  | 
13 | CCCCc1nc(Cl)c(/C=N/Nc2ccc3c4c(cccc24)C(=O)N(CCO)C3=O)n1Cc1ccccc1Cl | 57 (≈ 32.2 µg/mL) | 57 (≈ 32.2 µg/mL) |  |  | 4 (≈ 2.26 µg/mL) | 57 (≈ 32.2 µg/mL) | 227 (≈ 128 µg/mL) |  |  | 
14 | O=C1c2cccc3c(N/N=C/c4c(Cl)cccc4Cl)ccc(c23)C(=O)N1CCO | 150 (≈ 64.2 µg/mL) | 599 (≈ 257 µg/mL) |  |  | 300 (≈ 128 µg/mL) | 150 (≈ 64.2 µg/mL) | 300 (≈ 128 µg/mL) |  |  | 
15 | CCCCCCCCN1C(=O)c2cccc3c(N/N=C(\C)Cn4c([N+](=O)[O-])cnc4C)ccc(c23)C1=O | 1020 (≈ 512 µg/mL) | 1020 (≈ 512 µg/mL) |  |  | 1020 (≈ 512 µg/mL) | 1020 (≈ 512 µg/mL) | 1020 (≈ 512 µg/mL) |  |  | 
16 | C/C(Cn1c([N+](=O)[O-])cnc1C)=N\Nc1ccc2c3c(cccc13)C(=O)N(Cc1ccc(F)cc1)C2=O | 1020 (≈ 512 µg/mL) | 1020 (≈ 512 µg/mL) |  |  | 1020 (≈ 512 µg/mL) | 1020 (≈ 512 µg/mL) | 1020 (≈ 512 µg/mL) |  |  | 
17 | C/C(Cn1c([N+](=O)[O-])cnc1C)=N\Nc1ccc2c3c(cccc13)C(=O)N(c1ccc(F)c(Cl)c1)C2=O | 246 (≈ 128 µg/mL) | 246 (≈ 128 µg/mL) |  |  | 983 (≈ 512 µg/mL) | 491 (≈ 256 µg/mL) | 983 (≈ 512 µg/mL) |  |  | 
18 | CCCCCCN1C(=O)c2cccc3c(N/N=C(\C)Cn4c([N+](=O)[O-])cnc4C)ccc(c23)C1=O | 1070 (≈ 512 µg/mL) | 1070 (≈ 512 µg/mL) |  |  | 1070 (≈ 512 µg/mL) | 1070 (≈ 512 µg/mL) | 1070 (≈ 512 µg/mL) |  |  | 
19 | C[n+]1cccc(/C=N/Nc2ccc3c4c(cccc24)C(=O)N(CCO)C3=O)c1.[I-] | 64 | 127 |  |  | 16 | 32 | 8 |  |  | 52
20 | O=C1c2cccc3c(N/N=C/c4cccs4)ccc(c23)C(=O)N1CCO | 351 (≈ 128 µg/mL) | 175 (≈ 63.9 µg/mL) |  |  | 351 (≈ 128 µg/mL) | 175 (≈ 63.9 µg/mL) | 175 (≈ 63.9 µg/mL) |  |  | 
21 | O=C1c2cccc3c(N/N=C/c4cccc(O)c4)ccc(c23)C(=O)N1CCO | 682 (≈ 256 µg/mL) | 341 (≈ 128 µg/mL) |  |  | 341 (≈ 128 µg/mL) | 341 (≈ 128 µg/mL) | 171 (≈ 64.2 µg/mL) |  |  | 
22 | CCCCc1nc(Cl)c(/C=N/Nc2ccc3c4c(cccc24)C(=O)N(CCO)C3=O)n1Cc1cccc(F)c1 | 58 (≈ 31.8 µg/mL) | 29 (≈ 15.9 µg/mL) |  |  | 7 (≈ 3.84 µg/mL) | 117 (≈ 64.1 µg/mL) | 58 (≈ 31.8 µg/mL) |  |  | 
23 | CCCCCCCN1C(=O)c2cccc3c(N/N=C(\C)Cn4c([N+](=O)[O-])cnc4C)ccc(c23)C1=O | 1040 (≈ 512 µg/mL) | 1040 (≈ 512 µg/mL) |  |  | 1040 (≈ 512 µg/mL) | 1040 (≈ 512 µg/mL) | 1040 (≈ 512 µg/mL) |  |  | 
24 | O=C1c2cccc3c(N/N=C/c4ccc(O)c([N+](=O)[O-])c4)ccc(c23)C(=O)N1CCO | 5 (≈ 2.1 µg/mL) | 5 (≈ 2.1 µg/mL) |  |  | 10 (≈ 4.2 µg/mL) | 5 (≈ 2.1 µg/mL) | 2 (≈ 0.841 µg/mL) |  |  | 
25 | NNc1ccc2c3c(cccc13)C(=O)N(CCO)C2=O | 118 (≈ 32 µg/mL) | 236 (≈ 64 µg/mL) |  |  | 118 (≈ 32 µg/mL) | 118 (≈ 32 µg/mL) | 118 (≈ 32 µg/mL) |  |  | 
26 | CCCCc1nc(Cl)c(/C=N/Nc2ccc3c4c(cccc24)C(=O)N(CCO)C3=O)n1CCO | 17 (≈ 8.23 µg/mL) | 33 (≈ 16 µg/mL) |  |  | 17 (≈ 8.23 µg/mL) | 33 (≈ 16 µg/mL) | 66 (≈ 31.9 µg/mL) |  |  | 
27 | O=C1c2cccc3c(N/N=C/c4cncs4)ccc(c23)C(=O)N1CCO | 87 (≈ 31.9 µg/mL) | 22 (≈ 8.06 µg/mL) |  |  | 44 (≈ 16.1 µg/mL) | 350 (≈ 128 µg/mL) | 175 (≈ 64.1 µg/mL) |  |  | 
28 | O=C1c2cccc3c(N/N=C/c4cnc(-c5ccccc5)s4)ccc(c23)C(=O)N1CCO | 87 (≈ 38.5 µg/mL) | 5 (≈ 2.21 µg/mL) |  |  | 22 (≈ 9.74 µg/mL) | 87 (≈ 38.5 µg/mL) | 44 (≈ 19.5 µg/mL) |  |  | 
29 | O=C1c2cccc3c(N/N=C/c4cc[nH]c4)ccc(c23)C(=O)N1CCO | 23 (≈ 8.01 µg/mL) | 46 (≈ 16 µg/mL) |  |  | 367 (≈ 128 µg/mL) | 367 (≈ 128 µg/mL) | 92 (≈ 32 µg/mL) |  |  | 
30 | CCCCc1nc(Cl)c(/C=N/Nc2ccc3c4c(cccc24)C(=O)N(CCO)C3=O)n1CC1CC1 | 32 (≈ 15.8 µg/mL) | 65 (≈ 32.1 µg/mL) |  |  | 8 (≈ 3.95 µg/mL) | 65 (≈ 32.1 µg/mL) | 8 (≈ 3.95 µg/mL) |  |  | 
